Experimental data reported in patent US12194058B2, “Cancer treatment regimen using anti-parasitic compounds and gut microbiome modulating agents” (FLORIDA ATLANTIC UNIVERSITY BOARD OF TRUSTEES, priority 2021, dated 2025).
Entries after “also recorded” stand apart in the source; their conditions may differ.

Assays:
MDA-MB-231 cells = assay: three-dimensional spheroid multi-parametric assay, MDA-MB-231; type: cell-based, human; details: MDA-MB-231 spheroids, 24 h; for activity / potency in cell line (image analysis, FIG. 4): average of three experiments
Experimental: (§1) MDA-MB-231 or MDA-MB-468 cells were plated on a black plate with clear bottom low adherence spheroid 384-well tissue culture plate (Corning 3830; Corning NY) at a concentration of 1,500 cells per well in ice-cold complete media without phenol red containing 2.5% matrigel (BD Biosciences, Billerica, MA) in a final volume of 30 μL/well and allowed to adhere for 24 hours. After confirming the formation of a spheroid, 30 μL of medium containing treatment at two times the final concentration was added. Treatments consisted of 10, 5, 2.5 or 1.25 μM oxfendazole (OFZ), 5, 2.5, 1.25 or 0.625 μM parbendazole (PBZ) or a combination 10/5, 5/2.5, 2.5/1.25 or 1.25/0.625 μM OFZ/PBZ. Controls included 10 μM ABT737, 5 μg/mL 5-fluorouracil, 0.5 μg/mL doxorubicin, media alone, and solvent controls. Solvent for drug treatments was 10% DMSO by weight. Cells were incubated with treatment for 24 h. At the end of this incubation 20 μL/well of a staining mixture containing 2 drops/mL NucBlue Live Cell Stain Hoechst 33342 (Molecular Probes, Eugene, OR), 5 μM CellEvent™ Caspase-3/7 Green Detection Reagent (Molecular Probes, Eugene, OR) and […] 7-amino-actinomycin D (7AAD; Sigma, St. Louis, MO) were added and allowed to incubate for 3 h. Cells were fixed with 4% paraformaldehyde by weight. Images were acquired using the ImageXpress® Micro XLS widefield HCS (Molecular Devices, Sunnyvale, CA), with a 10× Plan Fluor objective, binning at 2 and focusing on plate bottom, then offset by bottom thickness. A stack of 8 images separated by 10 μm starting at the well bottom and covering approximately the lower half of each spheroid were acquired. The best focus projection of this stack was analyzed using the Multi-Wavelength Cell Scoring Module of the MetaXpress 5.1.0.3 software (Molecular Devices, Sunnyvale, CA). The results were plotted using Microsoft excel (Redmond, WA). To normalize results, the solvent control values were subtracted from the 7AAD and the Caspase 3 percent positive results for treatment samples. Total cell count was expressed as a percentage comparing treatments to respective solvent controls. Compounds were tested in duplicate within plates. The in vitro effectiveness of BZs, either singly or in combination on tumor cytotoxicity using MDA-MB468 human breast cancer cell line spheroids was assessed.
FIG. 3 illustrates the in vitro effectiveness of BZs, either singly or in combination on tumor cytotoxicity using MDA-MB4231 human breast cancer cell line spheroids. […] Images were analyzed to determine cell counts based on DNA (Hoechst 33342 stain; blue), those dying through apoptosis by following cleavage of caspase 3, and cells dead or dying as measured by the loss of their membrane integrity (7-aminoactinomycin; red). […]

MDA-MB-468 cells = assay: three-dimensional spheroid multi-parametric assay, MDA-MB-468; type: cell-based, human; details: MDA-MB-468 spheroids, 24 h; for activity / potency in cell line (image analysis, FIG. 2): average of three experiments
Experimental: Controls included 10 μM ABT737, 5 μg/mL 5-fluorouracil, 0.5 μg/mL doxorubicin, media alone, and solvent controls. After treatments, cells were labeled with the cell permeable nuclear stain Hoechst 33342, a marker for cleaved caspase 3/7, and the cell impermeable nucleic acid stain 7AAD for three hours. Cells were fixed then images acquired using a high content imager at 10× magnification. Scale bars represent 200 μm. The experiment was repeated 3 times.
as §1, with “assessed. […]” for “assessed.”

[1] = tested on: 4T1Br4 mammary tumor cells; assay: 4T1Br4 triple negative breast cancer model in BALB/c mice, oral gavage treatment
Description: Light to ten-week-old BALB/c mice (Charles River Laboratories; total of 48 mice) are orthotopically injected with 25,000-50,000 4T1Br4 mammary tumor cells in 100 microliters unilaterally into 4th mammary fat pad. Primary tumor growth was monitored by caliper measurements and biweekly body weight and wellness checks. When tumor size reached 0.5-0.7 cu cm, animals were divided into 4 experimental groups: 1) No Treatment (n=8), 2) Single OFZ Treatment (n=8), 3) Single CMP Treatment (n=16), 4) Combination CMP and OFZ/PBZ Treatment (n=16). Treatments started at 2 weeks post cancer cell inoculation. The following are the oral gavage doses: OFZ, 5 mg/kg; PBZ, 9 mg/kg; FBZ, 10 mg/kg; CMPs 10 mg/kg. All drugs are dissolved in sterile saline and final gavage volume is 200 microliters per mouse. […] When primary tumors reach 1 cu cm, they were excised under general anesthesia for all groups except for half of the animals in single CMP and combination CMP and BZ treatments. For those groups, half of the animals in each of these drug treatments received tumor excision surgery and for the remaining half, the primary tumors are untouched throughout the course of the experiment. Primary tumor size, percentage tumor growth compared to pre-treatment baseline, body weights and survival were assessed. Upon death, necropsy was conducted to assess metastatic tumor growth in distal organs. […] Treatment started 2 weeks past orthotopic cancer cell inoculation. […] Values are represented as means+SEMs.
Treatment started 2 weeks post-cancer cell inoculation. […] Data are represented as group averages+SEMs.
Measures were averaged for each week and represented as Means+SEMs. Treatment started two weeks post-inoculation with cancer cells.
Necropsy was then conducted on the animals that expired for assessment of gross metastasis in lungs, brain and liver that may be responsible for expiration of mice. Detailed necropsy was performed and archived for each animal.

[2] = cited from earlier work
[3] = cited from earlier work; remark: listed apart in the source

| Structure (SMILES) | caspase cleavage (induction of apoptosis) (MDA-MB-231 cells) | activity / potency in cell line (image analysis, FIG. 4) (MDA-MB-231 cells) | death by loss of membrane integrity (7AAD) (MDA-MB-468 cells) | activity / potency in cell line (image analysis, FIG. 2) (MDA-MB-468 cells) | time of expiration / euthanasia of representative mouse ([1]; days post cancer cell inoculation) | lung metastasis at necropsy ([1]; gross necropsy) | cause of death of group ([1]; necropsy, listed as OFZ Alone) | angiogenesis at tumor / excision site ([1]; representative mouse) | splenomegaly ([1]; representative mouse, necropsy) | body weight across treatment weeks (FIG. 7) ([1]; tumor-bearing mice, measured biweekly) | survival at 6th week of treatment (animals remaining) ([1]; week 6 of treatment) | plasma half-life ([2]; in animals) | tolerability / toxicity ([2]; in vivo) | caspase 3/7 cleavage (MDA-MB-468 cells) | time to peak blood levels ([3]; after oral administration) | time to full recovery of liver function after cessation of treatment ([3]; transient liver function suppression) |
| --- | --- | --- | --- | --- | --- | --- | --- | --- | --- | --- | --- | --- | --- | --- | --- | --- |
| COC(=O)Nc1nc2ccc([S+]([O-])c3ccccc3)cc2[nH]1 (stereo not shown) [OFZ, (5-(phyenylsulphinyl)-18-benzimidazole-2yl) carmabic acid methyl ester] | caused caspase cleavage | more modest activity | favoring death by loss of membrane integrity | active | 32 days | extensive metastases in the mouse lungs | expired entirely due to lung metastasis; also recorded: metastatic process in the lungs as cause of death | angiogenesis is visible | instances of splenomegaly | significant decline in bodyweight measurements | deceased | 8.5 to 11 h | extremely well-tolerated with no known toxicity | – | – | – |
| CCCCc1ccc2nc(NC(=O)OC)[nH]c2c1 [PBZ, N-(6-butyl-1H-benzimidazol-2-yl) carbamic acid methyl ester] | caused caspase cleavage | statistically significantly more potent than OFZ | – | active; also recorded: statistically significantly more potent than OFZ | – | – | – | – | – | – | – | – | – | caused more caspase cleavage | 6 to 8 h | ≤ 2 weeks |
